Experimental findings from ChEMBL document CHEMBL1909046, “DrugMatrix in vitro pharmacology data” are described below.

Structures are written as SMILES.

One assay deals with T1, Leukotriene C4 synthase (Cavia porcellus, UniProt A6XA80).
T1 sequence (A6XA80 whole entry): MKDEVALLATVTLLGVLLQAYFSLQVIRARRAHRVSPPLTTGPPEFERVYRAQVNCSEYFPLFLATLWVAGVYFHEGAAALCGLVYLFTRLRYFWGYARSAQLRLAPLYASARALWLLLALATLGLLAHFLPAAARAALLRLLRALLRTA
Format: tissue-based, Lung.
Conditions: not given
Turning to `COc1cc(N)nc2[nH]c(-c3ccc(F)cc3)c(-c3ccncc3)c12`, the IC50 entry is reported as “Not Active”.
Same read-out and setting: under `CNS(=O)(=O)Cc1ccc2[nH]cc(CCN(C)C)c2c1` stands “Not Active”; under `CCCc1nn(C)c2c(=O)[nH]c(-c3cc(S(=O)(=O)N4CCN(C)CC4)ccc3OCC)nc12`, “Not Active”; under `COc1ccc(/C=C/C(=O)Nc2ccccc2C(=O)O)cc1OC`, “Not Active”.
Regarding `CCOC(N)=O`, the IC50 entry is on record as “Not Active”.
On the same count and under the same terms, under `CC(=O)Nc1nnc(S(N)(=O)=O)s1` [ACETAZOLAMIDE] stands “Not Active”; under `O=c1[nH]c2ccccc2n1CCCN1CCC(n2c(=O)[nH]c3cc(Cl)ccc32)CC1` [DOMPERIDONE], “Not Active”.
In the case of `CC1=C(CC(=O)O)c2cc(F)ccc2/C1=C\c1ccc(S(C)(=O)=O)cc1` [EXISULIND], the IC50 entry was “Not Active”.
For `CC(C)OC(=O)C(C)(C)Oc1ccc(C(=O)c2ccc(Cl)cc2)cc1` [FENOFIBRATE], the IC50 result is reported as “Not Active”.
As for `OCCN1CCN(CCCN2c3ccccc3Sc3ccc(C(F)(F)F)cc32)CC1` [FLUPHENAZINE], the IC50 entry was “Not Active”.

For a further assay, the target named is T2, C-X-C chemokine receptor type 1 (Homo sapiens, UniProt P25024). Further: in other assays of this panel Not Active means under 50% inhibition at 10 µM.
T2 sequence (P25024 whole entry): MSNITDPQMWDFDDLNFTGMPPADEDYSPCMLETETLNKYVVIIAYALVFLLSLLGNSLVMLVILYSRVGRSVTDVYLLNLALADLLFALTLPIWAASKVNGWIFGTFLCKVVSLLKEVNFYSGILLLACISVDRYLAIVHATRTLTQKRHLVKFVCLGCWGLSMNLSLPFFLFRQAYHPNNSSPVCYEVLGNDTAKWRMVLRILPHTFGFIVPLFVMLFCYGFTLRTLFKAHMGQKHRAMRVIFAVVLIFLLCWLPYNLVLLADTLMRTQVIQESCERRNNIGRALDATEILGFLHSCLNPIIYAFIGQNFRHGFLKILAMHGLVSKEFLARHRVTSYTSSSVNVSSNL
Conditions: not given
Take `COc1cc(N)nc2[nH]c(-c3ccc(F)cc3)c(-c3ccncc3)c12`: the IC50 result is recorded as “Not Active”.
The same measure, in the same setting: next, `CNS(=O)(=O)Cc1ccc2[nH]cc(CCN(C)C)c2c1`: “Not Active”; `CCCc1nn(C)c2c(=O)[nH]c(-c3cc(S(=O)(=O)N4CCN(C)CC4)ccc3OCC)nc12`: “Not Active”; `COc1ccc(/C=C/C(=O)Nc2ccccc2C(=O)O)cc1OC`: “Not Active”.
On the same count and under the same terms, next, `CCOC(N)=O`: “Not Active”; `CC(=O)Nc1nnc(S(N)(=O)=O)s1` [ACETAZOLAMIDE]: “Not Active”; `O=c1[nH]c2ccccc2n1CCCN1CCC(n2c(=O)[nH]c3cc(Cl)ccc32)CC1` [DOMPERIDONE]: “Not Active”.
Still for that read-out and setting: next, `CC1=C(CC(=O)O)c2cc(F)ccc2/C1=C\c1ccc(S(C)(=O)=O)cc1` [EXISULIND]: “Not Active”; `CC(C)OC(=O)C(C)(C)Oc1ccc(C(=O)c2ccc(Cl)cc2)cc1` [FENOFIBRATE]: “Not Active”; `OCCN1CCN(CCCN2c3ccccc3Sc3ccc(C(F)(F)F)cc32)CC1` [FLUPHENAZINE]: “Not Active”.

Tested on in the next assay: not listed separately
Briefly: DRUGMATRIX: Potassium Channel [KATP] radioligand binding (ligand: [3H] Glyburide). The format is cell membranes, Membrane. To be noted: hit-t15; Not Active = under 50% inhibition at 10 µM.
Turning to `COc1cc(N)nc2[nH]c(-c3ccc(F)cc3)c(-c3ccncc3)c12`, the IC50 entry is recorded as “Not Active” and the Ki result was “Not Active”.
Regarding `CNS(=O)(=O)Cc1ccc2[nH]cc(CCN(C)C)c2c1`, the IC50 entry was “Not Active” and the Ki result is “Not Active”.
Consider `CCCc1nn(C)c2c(=O)[nH]c(-c3cc(S(=O)(=O)N4CCN(C)CC4)ccc3OCC)nc12`, for which the IC50 result is given as “Not Active” and the Ki entry is reported as “Not Active”.
With `COc1ccc(/C=C/C(=O)Nc2ccccc2C(=O)O)cc1OC`, the IC50 result was “Not Active” and the Ki result is given as “Not Active”.
With `CCOC(N)=O`, the IC50 entry is recorded as “Not Active” and the Ki entry is on record as “Not Active”.
Regarding `CC1=C(CC(=O)O)c2cc(F)ccc2/C1=C\c1ccc(S(C)(=O)=O)cc1` [EXISULIND], the IC50 result was “Not Active” and the Ki entry was “Not Active”.

The target of a further assay is Mitogen-activated protein kinase 14 (Homo sapiens, UniProt Q16539). On the set-up: species or system Escherichia coli.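 Further: inhibition of p38alpha enzyme activity in a biochemical kinase assay, with myelin basic protein serving as substrate; in other assays of this panel Not Active means under 50% inhibition at 10 µM.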
Chain of Mitogen-activated protein kinase 14 (Q16539 whole entry): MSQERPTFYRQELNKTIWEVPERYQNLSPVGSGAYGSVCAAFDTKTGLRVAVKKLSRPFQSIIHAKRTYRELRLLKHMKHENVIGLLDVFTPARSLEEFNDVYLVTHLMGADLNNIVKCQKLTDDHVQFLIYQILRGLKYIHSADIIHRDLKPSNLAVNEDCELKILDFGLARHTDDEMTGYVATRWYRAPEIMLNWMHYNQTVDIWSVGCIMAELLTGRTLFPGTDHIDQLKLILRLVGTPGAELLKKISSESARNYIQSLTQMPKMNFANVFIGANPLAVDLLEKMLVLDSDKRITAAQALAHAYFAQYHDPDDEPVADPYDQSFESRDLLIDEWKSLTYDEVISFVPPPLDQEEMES
Conditions: not given
On to `CNS(=O)(=O)Cc1ccc2[nH]cc(CCN(C)C)c2c1`, for which the IC50 entry is “Not Active”.
The same measure, in the same setting: next, `CCCc1nn(C)c2c(=O)[nH]c(-c3cc(S(=O)(=O)N4CCN(C)CC4)ccc3OCC)nc12`: “Not Active”; `COc1ccc(/C=C/C(=O)Nc2ccccc2C(=O)O)cc1OC`: “Not Active”; `CCOC(N)=O`: “Not Active”.
As to `CC(=O)Nc1nnc(S(N)(=O)=O)s1` [ACETAZOLAMIDE], the IC50 entry is reported as “Not Active”.
As for `O=c1[nH]c2ccccc2n1CCCN1CCC(n2c(=O)[nH]c3cc(Cl)ccc32)CC1` [DOMPERIDONE], the IC50 entry is on record as “Not Active”.
Same read-out and setting: under `CC1=C(CC(=O)O)c2cc(F)ccc2/C1=C\c1ccc(S(C)(=O)=O)cc1` [EXISULIND] stands “Not Active”; under `CC(C)OC(=O)C(C)(C)Oc1ccc(C(=O)c2ccc(Cl)cc2)cc1` [FENOFIBRATE], “Not Active”; under `OCCN1CCN(CCCN2c3ccccc3Sc3ccc(C(F)(F)F)cc32)CC1` [FLUPHENAZINE], “Not Active”.

Tested on in the next assay: not listed separately
Description: DRUGMATRIX: Serotonin (5-Hydroxytryptamine) 5-HT3 radioligand binding (ligand: [3H] GR-65630). To be noted: hek293; Not Active = under 50% inhibition at 10 µM. Format: cell membranes, Membrane.
As for `COc1cc(N)nc2[nH]c(-c3ccc(F)cc3)c(-c3ccncc3)c12`, the IC50 result was “Not Active” and the Ki entry was “Not Active”.
Consider `CNS(=O)(=O)Cc1ccc2[nH]cc(CCN(C)C)c2c1`, for which the IC50 result is given as “Not Active” and the Ki result is reported as “Not Active”.
For the compound `CCCc1nn(C)c2c(=O)[nH]c(-c3cc(S(=O)(=O)N4CCN(C)CC4)ccc3OCC)nc12`, the IC50 entry was “Not Active” and the Ki result was “Not Active”.
For `COc1ccc(/C=C/C(=O)Nc2ccccc2C(=O)O)cc1OC`, the IC50 result is recorded as “Not Active” and the Ki entry is recorded as “Not Active”.
Take `CCOC(N)=O`: the concentration for half-maximal inhibition (IC50) result was “Not Active” and the Ki result was “Not Active”.
On to `CC1=C(CC(=O)O)c2cc(F)ccc2/C1=C\c1ccc(S(C)(=O)=O)cc1` [EXISULIND], for which the IC50 entry is “Not Active” and the Ki result is given as “Not Active”.

A further assay concerns the target T3, 5-hydroxytryptamine receptor 1A (Rattus norvegicus, UniProt P19327). Further: in other assays of this panel Not Active means under 50% inhibition at 10 µM.
T3 sequence (P19327 whole entry): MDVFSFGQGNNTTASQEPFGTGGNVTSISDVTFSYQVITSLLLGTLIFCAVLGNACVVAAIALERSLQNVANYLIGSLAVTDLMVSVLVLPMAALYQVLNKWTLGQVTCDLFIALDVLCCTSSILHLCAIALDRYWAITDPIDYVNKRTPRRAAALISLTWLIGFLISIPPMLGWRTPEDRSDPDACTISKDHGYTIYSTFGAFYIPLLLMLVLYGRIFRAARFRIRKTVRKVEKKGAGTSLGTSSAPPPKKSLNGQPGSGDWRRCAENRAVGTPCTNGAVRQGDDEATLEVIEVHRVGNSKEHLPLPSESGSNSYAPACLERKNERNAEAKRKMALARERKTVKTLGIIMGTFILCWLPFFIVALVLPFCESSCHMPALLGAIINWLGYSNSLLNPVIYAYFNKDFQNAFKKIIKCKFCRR
Format: cell membranes, CHO-K1, Membrane. To be noted: cho-k1.
For `COc1cc(N)nc2[nH]c(-c3ccc(F)cc3)c(-c3ccncc3)c12`, the IC50 result is listed as “Not Active”.
For the compound `CCCc1nn(C)c2c(=O)[nH]c(-c3cc(S(=O)(=O)N4CCN(C)CC4)ccc3OCC)nc12`, the IC50 result is given as “Not Active”.
Still for that read-out and setting: next, `COc1ccc(/C=C/C(=O)Nc2ccccc2C(=O)O)cc1OC`: “Not Active”; `CCOC(N)=O`: “Not Active”; `CC(=O)Nc1nnc(S(N)(=O)=O)s1` [ACETAZOLAMIDE]: “Not Active”.
Same read-out and setting: next, `O=c1[nH]c2ccccc2n1CCCN1CCC(n2c(=O)[nH]c3cc(Cl)ccc32)CC1` [DOMPERIDONE]: “Not Active”; `CC1=C(CC(=O)O)c2cc(F)ccc2/C1=C\c1ccc(S(C)(=O)=O)cc1` [EXISULIND]: “Not Active”; `CC(C)OC(=O)C(C)(C)Oc1ccc(C(=O)c2ccc(Cl)cc2)cc1` [FENOFIBRATE]: “Not Active”.

The assay is the same for the next values; noted with them: read-out: IC50.
As for `CNS(=O)(=O)Cc1ccc2[nH]cc(CCN(C)C)c2c1`, the concentration for half-maximal inhibition (IC50) was found to be 804 nM.
Take `OCCN1CCN(CCCN2c3ccccc3Sc3ccc(C(F)(F)F)cc32)CC1` [FLUPHENAZINE]: the IC50 stood at 1640 nM.

Still in this assay, the particulars now being: read-out: Ki.
As for `CNS(=O)(=O)Cc1ccc2[nH]cc(CCN(C)C)c2c1`, the Ki was 459 nM.
`OCCN1CCN(CCCN2c3ccccc3Sc3ccc(C(F)(F)F)cc32)CC1` [FLUPHENAZINE]: the Ki amounted to 939 nM.

Tested on in the next assay: not listed separately
Description: DRUGMATRIX: Sodium/nucleoside co-transporter radioligand binding (ligand: nitrobenzylthioinosine). The following applies: Not Active = under 50% inhibition at 10 µM. Format: cell membranes, Cavia porcellus, Dunkin-Hartley, Cerebral cortex, Membrane.
As for `COc1cc(N)nc2[nH]c(-c3ccc(F)cc3)c(-c3ccncc3)c12`, the IC50 result is listed as “Not Active” and the Ki result is “Not Active”.
`CNS(=O)(=O)Cc1ccc2[nH]cc(CCN(C)C)c2c1`: the IC50 result is listed as “Not Active” and the Ki entry is “Not Active”.
As for `CCCc1nn(C)c2c(=O)[nH]c(-c3cc(S(=O)(=O)N4CCN(C)CC4)ccc3OCC)nc12`, the IC50 result was “Not Active” and the Ki result is reported as “Not Active”.
In the case of `COc1ccc(/C=C/C(=O)Nc2ccccc2C(=O)O)cc1OC`, the IC50 result is recorded as “Not Active” and the Ki result is listed as “Not Active”.
Regarding `CCOC(N)=O`, the IC50 entry is “Not Active” and the Ki entry is on record as “Not Active”.
On to `CC1=C(CC(=O)O)c2cc(F)ccc2/C1=C\c1ccc(S(C)(=O)=O)cc1` [EXISULIND], for which the concentration for half-maximal inhibition (IC50) result is “Not Active” and the Ki result is given as “Not Active”.
